# Reference: ChEMBL document CHEMBL2073770, “Induction of multidrug resistance gene expression in rat liver cells in response to acute treatment by the DNA-damaging agent methyl methanesulfonate” (Biochem Biophys Res Commun, 1998)
# Molecular target: ATP-dependent translocase ABCB1 (Rattus norvegicus, UniProt P43245)
# Test: TP_TRANSPORTER: RT-PCR in vitro, liver epithelial cells
# Format: functional, tissue-based
# Settings: epithelial cell
# ATP-dependent translocase ABCB1, sequence (P43245 whole entry): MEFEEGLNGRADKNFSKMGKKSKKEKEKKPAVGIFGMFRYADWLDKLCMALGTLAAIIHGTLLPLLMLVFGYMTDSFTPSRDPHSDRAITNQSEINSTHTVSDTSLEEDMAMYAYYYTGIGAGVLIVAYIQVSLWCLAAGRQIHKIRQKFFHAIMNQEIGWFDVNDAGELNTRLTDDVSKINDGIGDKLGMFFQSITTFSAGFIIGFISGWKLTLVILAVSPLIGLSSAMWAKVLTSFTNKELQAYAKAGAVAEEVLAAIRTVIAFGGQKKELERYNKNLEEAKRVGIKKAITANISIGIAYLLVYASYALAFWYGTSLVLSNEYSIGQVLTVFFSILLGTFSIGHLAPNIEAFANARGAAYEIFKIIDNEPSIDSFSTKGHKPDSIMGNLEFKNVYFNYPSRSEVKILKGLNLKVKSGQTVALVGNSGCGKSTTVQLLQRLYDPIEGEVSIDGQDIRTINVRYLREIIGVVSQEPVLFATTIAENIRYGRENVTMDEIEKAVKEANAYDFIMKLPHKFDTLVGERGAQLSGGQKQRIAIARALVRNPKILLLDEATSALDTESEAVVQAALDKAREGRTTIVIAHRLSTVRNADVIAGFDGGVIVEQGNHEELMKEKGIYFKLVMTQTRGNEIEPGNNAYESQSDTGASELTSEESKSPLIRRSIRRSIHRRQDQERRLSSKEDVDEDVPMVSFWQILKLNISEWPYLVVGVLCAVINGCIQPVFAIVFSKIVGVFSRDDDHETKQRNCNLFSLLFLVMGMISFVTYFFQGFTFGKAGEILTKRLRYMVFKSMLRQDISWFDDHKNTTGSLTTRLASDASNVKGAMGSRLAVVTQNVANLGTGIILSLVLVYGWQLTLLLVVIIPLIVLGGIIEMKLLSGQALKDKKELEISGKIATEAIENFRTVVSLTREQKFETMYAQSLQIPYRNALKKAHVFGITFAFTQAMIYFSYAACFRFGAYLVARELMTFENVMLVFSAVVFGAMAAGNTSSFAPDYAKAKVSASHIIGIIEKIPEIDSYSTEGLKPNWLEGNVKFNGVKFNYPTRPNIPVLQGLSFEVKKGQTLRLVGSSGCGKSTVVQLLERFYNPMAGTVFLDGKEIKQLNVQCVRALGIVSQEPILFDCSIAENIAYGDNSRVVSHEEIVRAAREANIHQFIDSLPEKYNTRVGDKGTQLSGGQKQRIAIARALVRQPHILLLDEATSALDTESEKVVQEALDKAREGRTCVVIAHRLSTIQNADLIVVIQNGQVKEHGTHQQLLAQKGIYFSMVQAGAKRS
smiles,measurement,value
COS(C)(=O)=O [METHANESULFONIC ACID METHYL ESTER],Activity,inducer [+]
